In PubChem BioAssay (NCI):
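All cell lines were grown in 96-well plates and treated with compound for 48 hours. The concentration for 50% growth inhibition is given as GI50. TGI is the concentration that stops growth completely.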

Assays:
Assay in all cases: growth of human tumour cells (NCI), 48 h
NCI-H226 lung = tested on: NCI-H226 lung
LOX IMVI melanoma = tested on: LOX IMVI melanoma
UACC-62 melanoma = tested on: UACC-62 melanoma
CAKI-1 renal = tested on: CAKI-1 renal
COLO 205 colon = tested on: COLO 205 colon
ACHN renal = tested on: ACHN renal
SK-MEL-5 melanoma = tested on: SK-MEL-5 melanoma
UO-31 renal = tested on: UO-31 renal
SK-OV-3 ovarian = tested on: SK-OV-3 ovarian
MOLT-4 leukemia = tested on: MOLT-4 leukemia

Compound | GI50 (NCI-H226 lung) [µM] | TGI (NCI-H226 lung) [µM] | GI50 (LOX IMVI melanoma) [µM] | TGI (LOX IMVI melanoma) [µM] | GI50 (UACC-62 melanoma) [µM] | TGI (UACC-62 melanoma) [µM] | GI50 (CAKI-1 renal) [µM] | TGI (CAKI-1 renal) [µM] | GI50 (COLO 205 colon) [µM] | TGI (COLO 205 colon) [µM] | GI50 (ACHN renal) [µM] | TGI (ACHN renal) [µM] | GI50 (SK-MEL-5 melanoma) [µM] | TGI (SK-MEL-5 melanoma) [µM] | GI50 (UO-31 renal) [µM] | TGI (UO-31 renal) [µM] | GI50 (SK-OV-3 ovarian) [µM] | TGI (SK-OV-3 ovarian) [µM] | GI50 (MOLT-4 leukemia) [µM] | TGI (MOLT-4 leukemia) [µM]
CSC1=Nc2c(c(C)c(C)n2COC(CO)CO)C2=NC(=O)CN12 | > 100 | > 100 | > 100 | > 100 | > 100 | > 100 | > 100 | > 100 | > 100 | > 100 | > 100 | > 100 | > 100 | > 100 | > 100 | > 100 | > 100 | > 100 | > 100 | > 100
OC1(c2ccc(Cl)c(C(F)(F)F)c2)CCN(CCCC(c2ccc(F)cc2)c2ccc(F)cc2)CC1 | 0.857 | 1.81 | 0.821 | 1.52 | 0.81 | 1.5 | 0.922 | 1.9 | 0.856 | 1.57 | 0.87 | 1.63 | 0.797 | 1.47 | 0.714 | 2.72 | 1.31 | 3.17 | 1.03 | 2.38
C[C@]12Cc3cn[nH]c3C(=O)C1CC[C@@H]1C2CC[C@@]2(C)C1CC[C@@H]2O (stereo not given in full) | – | > 100 | – | > 100 | – | > 100 | – | > 100 | – | > 100 | – | > 100 | – | > 100 | – | > 100 | – | > 100 | – | > 100
Cn1c([N+](=O)[O-])cnc1C=C1C(=O)c2ccccc2C1=O | 13.1 | 47.4 | 2.84 | 11.1 | 2.04 | 5.75 | 3.56 | 14.2 | 4.83 | 15.9 | 3.75 | 13.7 | 8.67 | 21.9 | 3.83 | 16.2 | 6.32 | 29.4 | 3.68 | 17.6
COc1ccc2c(c1)c(-c1nc(-c3c[nH]c4ncccc34)cs1)cn2CCCN1CCOCC1 | 3.1 | 15.9 | 1.74 | 3.27 | 1.97 | 4.32 | 1.88 | 4.67 | 1.82 | 3.8 | 2.5 | 8.22 | 1.83 | 3.35 | 1.37 | 3.67 | 2.83 | 8.28 | 1.85 | 4.4
